Test results: ChEMBL document CHEMBL1201862, “PubChem BioAssay data set” (2004)
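A five-concentration, 48-hour dose response in 96-well plates underlies each endpoint, interpolated linearly between surrounding concentrations. GI50 marks 50% less growth.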 The source made the active and inactive calls. Rule as the data show it: active = GI50 up to about 1.1 µM and inactive = higher.

Experiments:
Experiment in all cases: NCI tumour cell line growth inhibition, 48 h
[1] = system: 786-0
[2] = system: CAKI-1
[3] = system: HOP-62
[4] = system: HOP-92
[5] = system: Hs-578T
[6] = system: K562
[7] = system: KM12
[8] = system: MCF7
[9] = system: MDA-MB-435
[10] = system: NCI-H23
[11] = system: SF-539
[12] = system: SK-MEL-28
[13] = system: SK-MEL-2
[14] = system: SNB-19
[15] = system: SNB-75
[16] = system: T47D
[17] = system: TK-10
[18] = system: U-251
[19] = system: UACC-62
[20] = system: MDA-N

Measured: GI50

OC1NC2Nc3ccccc3NC2NC1O (stereo not given)
inactive: [1] > 100 µM | [2] > 100 µM | [3] > 100 µM | [4] 30.8 µM | [5] > 100 µM | [6] > 100 µM | [7] > 100 µM | [8] > 100 µM | [9] > 100 µM | [10] > 100 µM | [11] > 100 µM | [12] > 100 µM | [13] > 100 µM | [14] > 100 µM | [15] > 100 µM | [16] > 100 µM | [17] > 100 µM | [18] > 100 µM | [19] > 100 µM

C=C1C(=O)OC2CC(C)C3C=CC(=O)C3CC12 (stereo not given)
inactive: [1] 1.76 µM | [2] 2.17 µM | [3] 15.9 µM | [4] 1.88 µM | [5] 1.85 µM | [6] 1.46 µM | [7] 5.64 µM | [9] 3.31 µM | [20] 2.07 µM | [10] 1.83 µM | [11] 2.08 µM | [12] 1.68 µM | [13] 2.04 µM | [14] 15.4 µM | [15] 5.51 µM | [16] 2.34 µM | [17] 3.16 µM | [18] 6.76 µM | [19] 1.71 µM

CN(C)c1ccc(C2ON=C(c3ccccc3)N2C23CC4CC(CC(C4)C2)C3)cc1 (stereo not given)
inactive: [1] > 10 µM | [2] > 10 µM | [3] > 10 µM | [4] > 10 µM | [5] > 10 µM | [6] 9.12 µM | [7] > 10 µM | [9] > 10 µM | [20] > 10 µM | [10] > 10 µM | [11] > 10 µM | [12] > 10 µM | [13] > 10 µM | [14] > 10 µM | [15] > 10 µM | [16] > 10 µM | [17] > 10 µM | [18] > 10 µM | [19] > 10 µM

N/C(=N\c1ccc(Cl)cc1)NS(=O)(=O)c1c(C(F)(F)F)cccc1C(F)(F)F
inactive: [1] 24.8 µM | [3] 24 µM | [4] 16.7 µM | [5] 17.9 µM | [6] > 100 µM | [7] 4.89 µM | [8] 15.6 µM | [20] 22.2 µM | [10] 5.58 µM | [11] 41.3 µM | [12] 62.5 µM | [13] 12.7 µM | [14] 18.9 µM | [15] 41.8 µM | [16] 12.5 µM | [17] 24 µM | [18] 13.5 µM | [19] 8.34 µM
